Like-named read-outs stand apart in the source and are kept apart here.

In one assay the test system is TRPM8. Briefly: Gene expression custom microarray, human skin fibroblasts (Example 1): TRPM8. To be noted: 24 hr; for fold induction at 10 µM: Skin fibroblast, read-out: TRPM8↑ gene expression, fold increase or decrease vs untreated cells. The class given is cell-based. An excerpt: (§1) Cell cultures: A human skin fibroblast cell culture (or cultures) was obtained through the Coriell Cell Repository from the National Institute on Aging Cell Repository (Camden, N.J.), or Promocell GmbH (Heidelberg, Germany). The initial culture was selected from the following cell lines: AG13066, AG11557, AG11796 or GM03651E. The cell lines were derived from donors as follows:
(§2) Experimental phase: When the appropriate quantity of cells had been grown, they were detached as described above, but at the final step were seeded into each well of one or more 6 well dishes. Each well received 2 ml of the cell suspension so they were seeded equally. The dishes were returned to the incubator until 85-95% confluency was reached.
(§3) It is at this stage that all wells were rinsed in PBS after aspirating the growth media. The compound(s) to be tested were previously mixed into a suitable solvent (e.g., DMSO or ethanol) that can be diluted to the desired concentration of test compound (10 μl) in the culture wells without exceeding maximum solvent concentrations and adversely effecting cell viability, and mixed with basal media. NOTE: Standard maximum levels of solvent are 0.1% for DMSO and 0.5% for ETOH. The concentration of each test compound is found in Tables 1 & 2.
(§4) Every 2 wells on the 6 well plate served as a biological replicate for the purposes of RNA isolation and genetic expression evaluations making each 6 well dish an n=3 for the test compound(s) contained in the media. Negative control plates (no test compound(s) and only basal media) were also generated. The plates were returned to the incubator for 24 hrs.
(§5) At the end of the 24 hr time period, the plates were removed from the incubator, the test media aspirated, and the cells rinsed with PBS. RNA isolation is performed using the BioRad Aurum Total RNA Mini Kit (Hercules, Calif.) per manufacturer's protocol; which is described, in brief, below: • Add 350 μl of lysis buffer to each well. Pipet multiple times to ensure thorough lysis. Add lysed cells to the collection tube. • Add 350 μl of 70% ETOH to the collection tube and mix thoroughly. • Pipet the generated lysate onto the spin column placed in a new 2 ml tube. Centrifuge for 30 sec between 8,000 and 10,000 g. • Place the spin column containing the now bound RNA, in a new 2 ml tube. Add 700 μl of low stringency wash solution to the spin column. Centrifuge for 30 sec between 8,000 and 10,000 g. Discard the flow through and replace spin column. • Add 80 μl of DNase I dilution to the spin column and incubate at room temperature for 15 minutes. • Add 700 μl of high stringency wash solution to the column and centrifuge for 30 sec between 8,000 and 10,000 g. Discard flow through. • Add 700 μl of low stringency wash solution to the column and centrifuge for 60 sec between 8,000 and 10,000 g. Discard flow through. • Centrifuge for 2 minutes to remove residual wash solution. • Transfer spin column to new 1.5 ml collection tube and add 80 μl of elution solution to the column. Allow 1 minute for saturation of the membrane and then centrifuge for 2 minutes to complete the RNA elution. • Quantify the quantity of RNA and store at −20 C° until use (no more than 1 month)
(§6) The genes tested were: • Cannabinoid receptor 1 (CB1(CNR1)) • Cannabinoid receptor 2 (CB2 (CNR2)) • Fatty acid amide hydrolase (FAAH) • Monoacylglycerol lipase (MGLL, i.e., MAGL) • Peroxisome proliferator-activated receptor gamma (PPARG) • Nuclear factor kappa-light-chain-enhancer of activated B cells (NFκβ) • Interleukin 1 Alpha (IL1alpha) • Cyclooxygenase 1 (PTGS1, i.e., COX1) • Transient receptor potential cation channel subfamily A member 1 (TRPA1) • Transient receptor potential cation channel subfamily V member 1 (TRPV1) • Transient receptor potential cation channel subfamily M member 8 (TRPM8) • Hemoglobin Subunit Beta (HBB) REFERENCE GENE • Ribosomal Protein L13a (RPL13A) REFERENCE GENE […]

The next assay relates to TRPA1. In words: Gene expression custom microarray, human skin fibroblasts (Example 1): TRPA1. To be noted: for fold induction at 10 µM: Skin fibroblast, read-out: TRPA1↑ gene expression, fold increase or decrease vs untreated cells. The class given is cell-based.
Excerpt: as §1, §2, §3, §4, §5, §6

The mark [1] stands for this setting: human skin fibroblasts, 10 uM, 24 hr.

As for `C=C(C)[C@@H]1CCC(C)=C[C@H]1c1c(O)cc(CCCCC)cc1O` [CBD, cannabidiol, reference compound], the fold induction at 10 µM in the assay with TRPM8 was 6.1; with TRPA1 (Homo sapiens, 24 h), 2.7.
Consider `CCCCCCCCCCCCCCCC(=O)NCCO` [N-palmitoylethanolamide], for which the “TRPM8↑ gene expression, fold increase or decrease vs untreated cells” value in the assay with TRPM8 (10 uM) is on record as 5.1 fold. For the same compound, the “TRPA1↑ gene expression, fold increase or decrease vs untreated cells” value with TRPA1 (setting [1]) is given as 8.2 fold.
With `CC(C)[C@]12O[C@H]1[C@@H]1O[C@]13[C@]1(O[C@H]1C[C@H]1C4=C(CC[C@@]13C)C(=O)OC4)[C@@H]2O` [Triptolide], the fold induction at 10 µM with TRPM8 was 47.6; with TRPA1 (setting [1]) it was 26.1.

For the origin of these results see patent publication US20220202739A1, “ENDOCANNABINOID MIMETIC AND ANTI-INFLAMMATORY COMPOUND CONTAINING COMPOSITIONS, METHODS OF PREPARATION AND USES THEREOF” (priority 2019, published 2022).
